The results in this text go back to ChEMBL document CHEMBL1201862, “PubChem BioAssay data set” (2004).

In assay [1] the target is G-protein coupled receptor 55 (Homo sapiens, UniProt Q9Y2T6). Nature of the assay: blockers of GPR55 signalling, imaged – imaging, image-based, counter-screen for GPR35 antagonist project, SAR follow-up (AID 2397). In kind it is functional.
Assay [2] deals with T1, Tyrosine-protein phosphatase non-receptor type 7 (Homo sapiens, UniProt P35236).
T1 sequence (P35236 whole entry): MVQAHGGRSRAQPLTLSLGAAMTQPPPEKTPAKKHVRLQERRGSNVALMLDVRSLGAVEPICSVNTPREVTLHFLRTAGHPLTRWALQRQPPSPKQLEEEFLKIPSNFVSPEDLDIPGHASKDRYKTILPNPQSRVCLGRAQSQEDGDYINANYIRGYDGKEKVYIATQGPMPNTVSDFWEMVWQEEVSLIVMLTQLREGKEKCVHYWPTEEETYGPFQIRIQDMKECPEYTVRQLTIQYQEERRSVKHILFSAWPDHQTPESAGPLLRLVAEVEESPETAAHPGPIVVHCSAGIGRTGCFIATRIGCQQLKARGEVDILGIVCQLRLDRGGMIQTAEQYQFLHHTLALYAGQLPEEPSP
In kind it is functional.

Assay [3] deals with DNA dC->dU-editing enzyme APOBEC-3G (Homo sapiens, UniProt Q9HC16). Nature of the assay: Dose Response confirmation of small molecule APOBEC3G DNA Deaminase Inhibitors via a fluorescence-based single-stranded DNA deaminase assay. [Related pubchem assays (depositor defined):AID493012, AID493028]. In kind it is functional.
Sequence of DNA dC->dU-editing enzyme APOBEC-3G (Q9HC16 whole entry): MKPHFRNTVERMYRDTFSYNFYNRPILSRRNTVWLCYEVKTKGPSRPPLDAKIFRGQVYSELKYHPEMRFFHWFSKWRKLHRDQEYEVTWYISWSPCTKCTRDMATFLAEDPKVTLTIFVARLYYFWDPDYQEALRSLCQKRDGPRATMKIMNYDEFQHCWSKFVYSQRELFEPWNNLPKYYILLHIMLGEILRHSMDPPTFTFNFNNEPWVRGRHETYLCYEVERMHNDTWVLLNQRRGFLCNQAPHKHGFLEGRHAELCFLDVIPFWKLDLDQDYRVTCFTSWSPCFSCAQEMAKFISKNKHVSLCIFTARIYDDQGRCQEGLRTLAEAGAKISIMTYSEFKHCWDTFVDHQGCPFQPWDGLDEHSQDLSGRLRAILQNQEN
The target in assay [4] is T2, Voltage-gated N-type calcium channel alpha-1B subunit/Amyloid beta A4 precursor protein-binding family A member 1 (Homo sapiens, UniProt Q00975+Q02410). The format is protein assay.
T2 sequence (Q00975 whole entry): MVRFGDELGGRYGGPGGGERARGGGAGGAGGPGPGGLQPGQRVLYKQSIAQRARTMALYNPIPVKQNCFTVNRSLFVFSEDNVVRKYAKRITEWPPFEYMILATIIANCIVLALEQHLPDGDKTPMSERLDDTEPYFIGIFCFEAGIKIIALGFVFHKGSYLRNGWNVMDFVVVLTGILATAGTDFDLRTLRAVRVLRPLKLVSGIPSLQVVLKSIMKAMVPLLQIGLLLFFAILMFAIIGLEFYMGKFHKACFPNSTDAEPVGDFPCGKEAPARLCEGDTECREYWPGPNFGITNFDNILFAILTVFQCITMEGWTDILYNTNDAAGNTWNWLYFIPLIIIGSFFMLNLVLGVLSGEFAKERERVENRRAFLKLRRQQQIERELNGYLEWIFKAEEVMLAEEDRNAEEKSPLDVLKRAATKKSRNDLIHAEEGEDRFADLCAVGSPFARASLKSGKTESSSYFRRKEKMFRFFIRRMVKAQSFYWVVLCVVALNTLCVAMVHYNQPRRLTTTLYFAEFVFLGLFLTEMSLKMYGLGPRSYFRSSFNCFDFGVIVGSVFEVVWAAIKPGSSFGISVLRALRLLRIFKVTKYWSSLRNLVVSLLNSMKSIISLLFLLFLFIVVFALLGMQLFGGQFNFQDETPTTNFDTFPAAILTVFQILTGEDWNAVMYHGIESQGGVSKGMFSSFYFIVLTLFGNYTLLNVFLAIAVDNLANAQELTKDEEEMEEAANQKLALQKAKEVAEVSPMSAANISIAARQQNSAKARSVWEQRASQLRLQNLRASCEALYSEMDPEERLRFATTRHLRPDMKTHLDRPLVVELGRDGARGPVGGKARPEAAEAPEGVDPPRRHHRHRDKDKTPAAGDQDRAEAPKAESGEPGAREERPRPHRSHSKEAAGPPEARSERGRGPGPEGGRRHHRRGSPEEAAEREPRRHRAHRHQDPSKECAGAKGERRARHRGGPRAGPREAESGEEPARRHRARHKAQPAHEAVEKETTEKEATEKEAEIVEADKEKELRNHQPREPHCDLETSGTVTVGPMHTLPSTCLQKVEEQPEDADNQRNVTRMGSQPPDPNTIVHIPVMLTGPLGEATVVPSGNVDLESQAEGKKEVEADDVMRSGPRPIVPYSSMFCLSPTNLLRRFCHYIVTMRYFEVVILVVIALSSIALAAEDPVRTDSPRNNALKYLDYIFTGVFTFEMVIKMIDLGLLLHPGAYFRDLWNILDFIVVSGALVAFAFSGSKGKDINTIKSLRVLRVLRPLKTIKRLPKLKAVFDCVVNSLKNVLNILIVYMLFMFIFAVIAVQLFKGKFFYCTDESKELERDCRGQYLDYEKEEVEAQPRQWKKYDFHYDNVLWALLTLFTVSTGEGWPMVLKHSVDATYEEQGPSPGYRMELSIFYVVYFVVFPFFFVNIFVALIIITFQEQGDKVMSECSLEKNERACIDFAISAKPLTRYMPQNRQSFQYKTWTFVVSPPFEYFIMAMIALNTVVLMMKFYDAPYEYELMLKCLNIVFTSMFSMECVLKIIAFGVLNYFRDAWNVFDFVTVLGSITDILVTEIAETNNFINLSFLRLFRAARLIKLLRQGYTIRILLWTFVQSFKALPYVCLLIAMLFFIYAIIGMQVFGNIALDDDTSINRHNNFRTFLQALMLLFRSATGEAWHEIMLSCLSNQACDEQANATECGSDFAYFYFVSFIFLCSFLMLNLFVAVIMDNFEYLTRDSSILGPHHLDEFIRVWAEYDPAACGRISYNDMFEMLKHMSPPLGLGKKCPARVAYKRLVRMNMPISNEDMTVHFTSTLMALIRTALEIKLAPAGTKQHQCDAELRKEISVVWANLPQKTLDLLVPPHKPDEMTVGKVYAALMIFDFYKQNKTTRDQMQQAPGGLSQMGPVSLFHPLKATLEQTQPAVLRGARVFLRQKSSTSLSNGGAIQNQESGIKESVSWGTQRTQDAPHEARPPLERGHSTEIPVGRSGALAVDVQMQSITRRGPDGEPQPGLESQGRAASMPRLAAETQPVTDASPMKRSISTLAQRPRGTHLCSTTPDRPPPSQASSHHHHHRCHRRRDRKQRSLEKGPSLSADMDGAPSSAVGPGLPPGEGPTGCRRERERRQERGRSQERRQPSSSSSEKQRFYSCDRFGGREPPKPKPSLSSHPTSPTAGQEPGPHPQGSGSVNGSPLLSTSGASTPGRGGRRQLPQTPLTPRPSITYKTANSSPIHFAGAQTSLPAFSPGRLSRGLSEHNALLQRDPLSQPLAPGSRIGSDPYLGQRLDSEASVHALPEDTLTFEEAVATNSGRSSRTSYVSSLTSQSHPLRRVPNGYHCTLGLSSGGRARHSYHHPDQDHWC
T2 sequence (Q02410 whole entry): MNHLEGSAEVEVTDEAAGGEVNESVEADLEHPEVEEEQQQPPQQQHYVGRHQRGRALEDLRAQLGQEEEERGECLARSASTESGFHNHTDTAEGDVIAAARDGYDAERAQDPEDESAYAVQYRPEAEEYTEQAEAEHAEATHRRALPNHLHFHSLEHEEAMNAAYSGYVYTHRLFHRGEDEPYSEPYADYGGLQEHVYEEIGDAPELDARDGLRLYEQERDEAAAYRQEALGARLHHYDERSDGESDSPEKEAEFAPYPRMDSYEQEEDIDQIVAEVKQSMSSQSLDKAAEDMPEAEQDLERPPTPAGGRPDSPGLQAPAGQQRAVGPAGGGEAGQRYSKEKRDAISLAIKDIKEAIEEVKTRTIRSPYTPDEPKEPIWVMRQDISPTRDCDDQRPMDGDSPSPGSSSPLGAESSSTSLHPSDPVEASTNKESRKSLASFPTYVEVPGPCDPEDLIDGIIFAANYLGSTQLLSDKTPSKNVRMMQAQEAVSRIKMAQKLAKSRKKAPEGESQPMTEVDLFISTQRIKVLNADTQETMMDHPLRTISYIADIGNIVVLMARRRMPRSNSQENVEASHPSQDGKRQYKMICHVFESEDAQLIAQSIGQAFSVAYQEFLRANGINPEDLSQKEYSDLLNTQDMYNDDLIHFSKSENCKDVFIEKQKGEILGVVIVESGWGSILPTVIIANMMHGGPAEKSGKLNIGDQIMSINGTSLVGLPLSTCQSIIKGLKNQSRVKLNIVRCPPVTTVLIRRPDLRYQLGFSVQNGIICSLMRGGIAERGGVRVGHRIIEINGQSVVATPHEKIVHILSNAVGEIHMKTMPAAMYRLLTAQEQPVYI
Assay [5] deals with T2, Voltage-gated N-type calcium channel alpha-1B subunit/Amyloid beta A4 precursor protein-binding family A member 1. In kind it is protein assay. This is another data set of the same source.
Assay [6] deals with T3, Tyrosine-protein phosphatase non-receptor type 22 (Homo sapiens, UniProt Q9Y2R2).
T3 sequence (Q9Y2R2 whole entry): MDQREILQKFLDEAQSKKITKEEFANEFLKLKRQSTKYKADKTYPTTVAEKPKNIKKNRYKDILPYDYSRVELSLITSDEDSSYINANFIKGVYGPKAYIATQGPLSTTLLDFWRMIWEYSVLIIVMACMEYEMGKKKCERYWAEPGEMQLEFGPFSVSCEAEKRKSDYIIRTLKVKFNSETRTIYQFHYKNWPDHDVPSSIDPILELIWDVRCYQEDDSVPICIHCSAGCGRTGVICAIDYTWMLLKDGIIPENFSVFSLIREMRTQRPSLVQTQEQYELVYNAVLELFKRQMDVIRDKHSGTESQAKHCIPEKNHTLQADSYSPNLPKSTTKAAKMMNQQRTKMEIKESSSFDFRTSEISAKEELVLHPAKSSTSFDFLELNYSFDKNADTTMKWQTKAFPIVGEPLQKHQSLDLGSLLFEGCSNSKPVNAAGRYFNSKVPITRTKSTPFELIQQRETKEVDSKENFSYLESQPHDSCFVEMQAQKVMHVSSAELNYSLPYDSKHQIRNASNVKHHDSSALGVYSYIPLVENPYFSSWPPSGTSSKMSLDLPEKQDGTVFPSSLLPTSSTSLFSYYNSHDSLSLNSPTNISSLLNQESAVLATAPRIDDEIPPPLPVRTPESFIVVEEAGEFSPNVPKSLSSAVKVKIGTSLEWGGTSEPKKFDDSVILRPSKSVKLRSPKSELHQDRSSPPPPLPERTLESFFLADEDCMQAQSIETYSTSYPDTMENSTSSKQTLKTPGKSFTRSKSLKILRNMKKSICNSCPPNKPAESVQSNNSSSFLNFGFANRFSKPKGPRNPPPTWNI
In kind it is functional.

The target of assay [7] is T3, Tyrosine-protein phosphatase non-receptor type 22. In kind it is functional. This is another data set of the same source.
The target in assay [8] is SUMO E1/E2 (Homo sapiens, UniProt P63279+Q9UBE0+Q9UBT2). Nature of the assay: SAR analysis of SUMOylation using HTRF in an in-Vitro dose response assay. [Related pubchem assays (depositor defined):AID2006, AID2011, AID2018, AID2069, AID2658]. The format is functional.
Sequence of SUMO E1/E2 (Q9UBE0 whole entry): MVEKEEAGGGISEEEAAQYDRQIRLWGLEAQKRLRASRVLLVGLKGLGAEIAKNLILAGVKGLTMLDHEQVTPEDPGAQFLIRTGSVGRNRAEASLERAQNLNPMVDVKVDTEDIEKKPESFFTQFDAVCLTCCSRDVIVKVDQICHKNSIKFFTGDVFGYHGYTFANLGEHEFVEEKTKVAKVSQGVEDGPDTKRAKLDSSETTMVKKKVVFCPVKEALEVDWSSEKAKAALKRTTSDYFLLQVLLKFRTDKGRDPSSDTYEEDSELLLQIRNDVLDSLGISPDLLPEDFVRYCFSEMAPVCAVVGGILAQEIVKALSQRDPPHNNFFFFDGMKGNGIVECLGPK
Sequence of SUMO E1/E2 (Q9UBT2 whole entry): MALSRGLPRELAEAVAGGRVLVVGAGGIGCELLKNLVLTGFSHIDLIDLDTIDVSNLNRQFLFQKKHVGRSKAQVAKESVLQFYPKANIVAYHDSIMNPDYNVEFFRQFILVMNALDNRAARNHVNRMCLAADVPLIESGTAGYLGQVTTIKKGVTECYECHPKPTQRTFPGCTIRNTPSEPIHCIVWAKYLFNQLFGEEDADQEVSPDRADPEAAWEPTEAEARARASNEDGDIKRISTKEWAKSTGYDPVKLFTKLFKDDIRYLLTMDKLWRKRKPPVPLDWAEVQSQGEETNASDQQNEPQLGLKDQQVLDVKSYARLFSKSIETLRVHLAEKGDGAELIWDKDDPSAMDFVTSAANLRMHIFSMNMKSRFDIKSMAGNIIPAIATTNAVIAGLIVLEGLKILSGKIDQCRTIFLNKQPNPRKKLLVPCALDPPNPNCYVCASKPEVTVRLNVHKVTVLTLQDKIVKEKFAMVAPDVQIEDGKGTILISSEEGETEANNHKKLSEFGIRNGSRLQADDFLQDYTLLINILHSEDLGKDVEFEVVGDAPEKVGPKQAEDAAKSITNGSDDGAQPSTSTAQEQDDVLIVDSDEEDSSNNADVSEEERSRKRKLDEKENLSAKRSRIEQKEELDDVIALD
Sequence of SUMO E1/E2 (P63279 whole entry): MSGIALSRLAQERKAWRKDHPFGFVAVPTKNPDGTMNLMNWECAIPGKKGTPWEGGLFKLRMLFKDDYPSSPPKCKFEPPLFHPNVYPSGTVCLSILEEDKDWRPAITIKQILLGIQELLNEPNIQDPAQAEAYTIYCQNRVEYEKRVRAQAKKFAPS

Active and inactive are the calls of the source. Rule as the data show it, for most assays here: actives have a measured IC50 and inactives only a lower limit.

Sequence of G-protein coupled receptor 55 (Q9Y2T6 whole entry): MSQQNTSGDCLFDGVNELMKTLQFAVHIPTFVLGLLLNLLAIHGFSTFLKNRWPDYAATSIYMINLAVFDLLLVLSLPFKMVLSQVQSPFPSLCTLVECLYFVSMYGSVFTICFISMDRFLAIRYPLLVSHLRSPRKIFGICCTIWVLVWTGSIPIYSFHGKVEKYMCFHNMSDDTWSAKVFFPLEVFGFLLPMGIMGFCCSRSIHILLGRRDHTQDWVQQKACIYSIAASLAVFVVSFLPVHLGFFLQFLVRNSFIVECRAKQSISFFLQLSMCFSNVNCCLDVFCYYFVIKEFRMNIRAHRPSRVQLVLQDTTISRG

One may read the IC50 as the point on the concentration scale where inhibition reaches its midpoint. In the case of `O=C(Nc1ccc2nc(SCc3ccc(Cl)c(Cl)c3)sc2c1)c1ccccc1Br`, in assay [1], the IC50 was > 32 µM (inactive).

As for `COc1ccc(NC(=O)CN2C(=O)/C(=C3\SC(=S)N(CCC(=O)O)C3=O)c3ccccc32)cc1`, the IC50 is 6.84 µM (active) in assay [2]; 40.9 µM (active) in assay [3]; 14.5 µM (active) in assay [4]; > 50 µM (inactive) in assay [5]; 6.11 µM (active) in assay [6]; 13.8 µM (active) in assay [7].

In the case of `O=C1c2oc3ccccc3c(=O)c2C(c2ccc(O)cc2)N1c1nccs1` (stereo not drawn), the IC50 in assay [8] was 28.7 µM (active).
